# Patent US20250144051A1, “Colchicine for Treating Connective Tissue Disorders” (Khan Sciences, Inc., priority 2023, published 2025)
# How the values were obtained:
# Collagen I (human) = test: In vitro tendinopathy model, collagen I ELISA in tenocyte culture supernatant; type: cell-based
# Method: (§1) In Vitro Tendinopathy Model: The below experiment was conducted on an in vitro tendinopathy model. Cells derived from human tendons (tenocytes) can serve as an in vitro model of tendons. See Miller et al., “MicroRNA29a regulates IL-33-mediated tissue remodelling in tendon disease.” Nat Commun 6, 6774 (2015). Cultured tenocytes can be used to investigate the effects of pro-inflammatory cytokines upon the most basic elements of tendon structure. See Ellis et al., “Defining the profile: Characterizing cytokines in tendon injury to improve clinical therapy.” Journal of Immunology and Regenerative Medicine 16, 100059 (2022). When a tendon is injured, it triggers a local inflammatory response that involves immune cell infiltration and the expression of pro-inflammatory mediators. This inflammatory environment can modify tenocyte physiology, causing them to become activated and pro-inflammatory. Exposing the tenocytes to the pro-inflammatory cytokines TNF-α and IL-1β can mimic the effects of tendon injury. See Smith et al., “Tumour necrosis factor alpha, interleukin 1 beta and interferon gamma have detrimental effects on equine tenocytes that cannot be rescued by IL-1RA or mesenchymal stromal cell-derived factors.” Cell Tissue Res 391, 523-544 (2023).
# (§2) Cell Culture System. Immortalized, healthy, commercially-sourced human tenocyte cells (donor, patellar tendon) were reconstituted, seeded in T-75 flasks coated with bovine collagen I, and were maintained in Tenocyte Growth Medium supplemented with Tenocyte Growth Supplement, FBS, and penicillin/streptomycin. Culture conditions were maintained at 37° C. in a humidified 5% CO2 atmosphere. Cells were seeded at a density of 100,000 cells/well in commercially-sourced 24-well plates that were pre-coated with rat tail tendon collagen I.
# (§3) Treatment Protocol. This study was designed to follow the time-course of collagen production after cytokine exposure to mimic the effects of tendon injury. The time variable was cytokine exposure time (6 hours, 1 day, 3 days, and 5 days). Each of these cytokine exposure time periods was followed by a 24-hour drug treatment period. Inflammatory conditions were induced using a combination of IL-1β (1 nM; 17 ng/ml) and TNF-α (10 ng/ml). Two therapeutic interventions were evaluated. The treatment designated as “treatment A” was colchicine (2 nM). The treatment designated as “treatment B” was colchicine (2 nM) plus pyridoxine (100 μM).
# (§4) Experimental Groups. The treatment groups were as follows: (1) exposed to inflammatory cytokines plus treatment A; (2) exposed to inflammatory cytokines plus treatment B; (3) exposed to inflammatory cytokines (negative control, no drug). Further reference control groups were as follows: (A) treatment A without inflammatory cytokine exposure (drug-only control); (B) treatment B without inflammatory cytokine exposure (drug-only control); (C) healthy control (no inflammatory cytokines, no drug treatment).
# Sample Collection Times. […]
# (§5) Assays Used. Collagen I (human) content was measured using enzyme-linked immunosorbent assay (ELISA) in cell culture supernatants. TGF-β1 in cell culture supernatants were measured using the MSD multiplex platform. Other inflammatory cytokines in cell culture supernatants were measured using the MSD multiplex platform.
# IFN-γ = test: In vitro tendinopathy model, IFN-γ in tenocyte supernatant (MSD multiplex); type: cell-based, human; parameters: IFN-γ, % of negative control / reduction of IFN-γ levels compared to negative control: concentration or dose not given beside the values
# Method: as §1, §2, §3, §4
# (§6) Sample Collection Times. Samples were collected at the following timepoints after initiation of cytokine exposure: • 6-hour samples: Collection at 30 hours (6 hr cytokine exposure+24 hr drug treatment) • 1-day samples: Collection at 48 hours (24 hr cytokine exposure+24 hr drug treatment) • 3-day samples: Collection at 96 hours (72 hr cytokine exposure+24 hr drug treatment) • 5-day samples: Collection at 144 hours (120 hr cytokine exposure+24 hr drug treatment, cell culture medium replenished on day-3)
# as §5
# IL-33 = test: In vitro tendinopathy model, IL-33 in tenocyte supernatant (MSD multiplex); type: cell-based, human; parameters: IL-33, % of negative control / reduction of IL-33 levels compared to negative control: concentration or dose not given beside the values
# Method: as §1, §2, §3, §4, §6, §5
# [1] = test system: patient with bilateral upper extremity tendonitis (repetitive strain injury); test: Experimental clinical trial of oral colchicine in one patient with tendonitis; type: in vivo, human
# Method: An experimental trial was conducted on a patient, who was a person with bilateral upper extremity tendonitis for 7 months duration. The symptoms at the wrist radiated down to their fingers and up to their elbow. They reported the severity of their symptoms as 5-7 on a 1-10 standard discomfort scale. The cause of their widespread tendonitis was repetitive strain injury.
# The patient began treatment with 0.6 mg of colchicine by oral intake once daily. […] With continued daily dosing of colchicine for a total of two weeks duration, symptoms were nearly gone. They were free of symptoms while performing their activities of daily living. At the end of two weeks of treatment, the patient reported reduced severity of symptoms to a level of 2 on a standard 1-10 discomfort scale.
# The experimental trial was further extended to observe the effect of discontinuing the colchicine after initially achieving therapeutic success. Upon discontinuing, their tendonitis symptoms gradually returned. After 7 days without treatment, they reported the severity of their symptoms had worsened to 5 on the standard scale. After another 14 days without treatment (21 days cumulative), their symptoms remained at level 5, and occasionally rising to level 6 with increased arm use activity.
# TGF-β1 = test: In vitro tendinopathy model, TGF-β1 in tenocyte supernatant (MSD multiplex); type: cell-based, human
# Method: as §1, §2, §3, §4, §6, §5
# [2] = 6 hr cytokine exposure + 24 hr drug treatment
# [3] = 1 day cytokine exposure + 24 hr drug treatment
# [4] = 3 days cytokine exposure + 24 hr drug treatment
# [5] = 5 days cytokine exposure + 24 hr drug treatment
compound,measurement,setting,value
"COc1cc2c(c(OC)c1OC)-c1ccc(OC)c(=O)cc1[C@@H](NC(C)=O)CC2 [Treatment A, colchicine]",collagen I level,"Collagen I (human); 6 hr IL-1β + TNF-α exposure + 24 hr drug treatment, negative control 24 ng/mL",20 ng/mL
same,collagen I level,"Collagen I (human); 1 day IL-1β + TNF-α exposure + 24 hr drug treatment, negative control 20 ng/ml",19 ng/mL
same,collagen I level,"Collagen I (human); 3 days IL-1β + TNF-α exposure + 24 hr drug treatment, negative control 23 ng/ml",21 ng/mL
same,collagen I level,"Collagen I (human); 5 days IL-1β + TNF-α exposure + 24 hr drug treatment, negative control 28 ng/ml",28 ng/mL
same,collagen I level,"Collagen I (human); drug alone, without inflammatory cytokines, healthy control 30 ng/ml",17 ng/mL
same,reduction of IFN-γ levels compared to negative control,IFN-γ; 6-hour timepoint,28.4%
same,"IFN-γ, % of healthy level",IFN-γ; [2],154.5%
same,"IFN-γ, % of negative control",IFN-γ; [2],71.6%
same,IFN-γ level,"IFN-γ; 6 hr cytokine exposure + 24 hr drug treatment, negative control 17.6 pg/ml",12.6 pg/mL
same,"IFN-γ, % of healthy level",IFN-γ; [3],186.9%
same,"IFN-γ, % of negative control",IFN-γ; [3],98.0%
same,IFN-γ level,"IFN-γ; 1 day cytokine exposure + 24 hr drug treatment, negative control 15.6 pg/ml",15.3 pg/mL
same,"IFN-γ, % of healthy level",IFN-γ; [4],112.1%
same,"IFN-γ, % of negative control",IFN-γ; [4],72.4%
same,IFN-γ level,"IFN-γ; 3 days cytokine exposure + 24 hr drug treatment, negative control 12.7 pg/mL",9.2 pg/mL
same,"IFN-γ, % of healthy level",IFN-γ; [5],160.7%
same,"IFN-γ, % of negative control",IFN-γ; [5],80.7%
same,IFN-γ level,"IFN-γ; 5 days cytokine exposure + 24 hr drug treatment, negative control 16.3 pg/mL",13.1 pg/mL
same,IFN-γ level,"IFN-γ; drug alone, without inflammatory cytokines, healthy control 8.2 pg/mL",3.1 pg/mL
same,"IL-33, % of healthy level",IL-33; [2],113.6%
same,"IL-33, % of negative control",IL-33; [2],55.0%
same,IL-33 level,"IL-33; 6 hr cytokine exposure + 24 hr drug treatment, negative control 18.0 pg/mL",9.9 pg/mL
same,"IL-33, % of healthy level",IL-33; [3],128.1%
same,"IL-33, % of negative control",IL-33; [3],85.1%
same,IL-33 level,"IL-33; 1 day cytokine exposure + 24 hr drug treatment, negative control 13.1 pg/mL",11.2 pg/mL
same,"IL-33, % of healthy level",IL-33; [4],87.1%
same,"IL-33, % of negative control",IL-33; [4],70.8%
same,IL-33 level,"IL-33; 3 days cytokine exposure + 24 hr drug treatment, negative control 10.7 pg/mL",7.6 pg/mL
same,"IL-33, % of healthy level",IL-33; [5],167.4%
same,"IL-33, % of negative control",IL-33; [5],85.4%
same,IL-33 level,"IL-33; 5 days cytokine exposure + 24 hr drug treatment, negative control 17.1 pg/ml",14.6 pg/mL
same,reduction of IL-33 levels compared to negative control,IL-33; at 6 hours,45%
same,IL-33 level,"IL-33; drug alone, without inflammatory cytokines, healthy control 8.7 pg/mL",3.4 pg/mL
same,tendonitis symptoms,"[1]; 0.6 mg oral once daily, by the second day of treatment",began to improve
same,severity of symptoms on standard 1-10 discomfort scale,"[1]; 0.6 mg oral once daily, end of two weeks of treatment, before treatment 5-7",2
same,tendonitis symptoms,"[1]; 0.6 mg oral once daily, total of two weeks duration",nearly gone
same,severity of symptoms on standard 1-10 discomfort scale,[1]; 7 days without treatment after discontinuing colchicine,5
same,severity of symptoms on standard 1-10 discomfort scale,[1]; 21 days cumulative without treatment after discontinuing colchicine,5
same,"TGF-β1, % of negative control",TGF-β1; [2],127%
same,TGF-β1 level,"TGF-β1; 6 hr cytokine exposure + 24 hr drug treatment, negative control 0.97 ng/ml",1.23 ng/mL
same,"TGF-β1, % of negative control",TGF-β1; [3],104%
same,TGF-β1 level,"TGF-β1; 1 day cytokine exposure + 24 hr drug treatment, negative control 1.22 ng/ml",1.28 ng/mL
same,"TGF-β1, % of healthy baseline",TGF-β1; [4],112%
same,"TGF-β1, % of negative control",TGF-β1; [4],114%
same,TGF-β1 level,"TGF-β1; 3 days cytokine exposure + 24 hr drug treatment, negative control 1.70 ng/ml",1.94 ng/mL
same,"TGF-β1, % of negative control",TGF-β1; [5],108%
same,TGF-β1 level,"TGF-β1; 5 days cytokine exposure + 24 hr drug treatment, negative control 1.22 ng/mL",1.32 ng/mL
same,TGF-β1 level,"TGF-β1; drug alone, without inflammatory cytokines, healthy control 1.73 ng/ml",1.90 ng/mL
same,"TGF-β1, % of healthy baseline","TGF-β1; drug-only control, without inflammatory cytokines",110%
